Measurements taken from US7417156B2, “Orally active, antimalarial, anticancer, artemisinin-derived trioxane dimers” (Johns Hopkins University, priority 2002, dated 2008).

How the values were obtained:
[1] = test system: MDA-MB-435; assay: NCI 60 cell line panel screen (SRB); assay type: cell-based, human
[2] = test system: A549/ATCC; assay: NCI 60 cell line panel screen (SRB); assay type: cell-based, human
[3] = test system: 786-0; assay: NCI 60 cell line panel screen (SRB); assay type: cell-based, human
[4] = test system: UACC-257; assay: NCI 60 cell line panel screen (SRB); assay type: cell-based, human
[5] = test system: HS 578T; assay: NCI 60 cell line panel screen (SRB); assay type: cell-based, human
[6] = test system: T-47D; assay: NCI 60 cell line panel screen (SRB); assay type: cell-based, human
[7] = test system: NCI-H522; assay: NCI 60 cell line panel screen (SRB); assay type: cell-based, human
[8] = test system: OVCAR-5; assay: NCI 60 cell line panel screen (SRB); assay type: cell-based, human
[9] = test system: UO-31; assay: NCI 60 cell line panel screen (SRB); assay type: cell-based, human
[10] = test system: SF-539; assay: NCI 60 cell line panel screen (SRB); assay type: cell-based, human
[11] = test system: TK-10; assay: NCI 60 cell line panel screen (SRB); assay type: cell-based, human
[12] = test system: EKVX; assay: NCI 60 cell line panel screen (SRB); assay type: cell-based, human
[13] = test system: IGROVI; assay: NCI 60 cell line panel screen (SRB); assay type: cell-based, human
[14] = test system: NCI-H322M; assay type: cell-based
[15] = test system: MDA-MB231/ATCC; assay: NCI 60 cell line panel screen (SRB); assay type: cell-based, human

Q: Which Log10GI50 ([1]; Breast Cancer, MDA-MB-435) does the source give for `CC1CCC2C(C)C(CC(COC(=O)c3cc[n+]([O-])cc3)CC3OC4OC5(C)CCC6C(C)CCC(C3C)C46OO5)OC3OC4(C)CCC1C32OO4` (stereo not shown) [Compound 13, bis-trioxane primary alcohol isonicotinate N-oxide] here?
A: The Log10GI50 was −7.62.

Q: And the Log10LC50 ([1]; MDA-MB-435 (Breast Cancer), LC50: PG=−50)?
A: Its Log10LC50 is −4.46 log10M.

Q: And the Log10TGI50 ([1]; MDA-MB-435 (Breast Cancer), TGI: PG=0)?
A: Its Log10TGI50 is −4.94 log10M.

Q: And the Log10LC50 ([2]; A549/ATCC (Non-Small Cell Lung Cancer), LC50: PG=−50)?
A: The Log10LC50 was >−4.30 log10M.

Q: What about the Log10TGI50 ([2]; A549/ATCC (Non-Small Cell Lung Cancer), TGI: PG=0) of the same molecule?
A: Its Log10TGI50 is −4.61 log10M.

Q: What about the Log10GI50 ([2]; Non-Small Cell Lung Cancer, A549/ATCC) of the same molecule?
A: The Log10GI50 was −5.98.

Q: What about the Log10LC50 ([3]; 786-0 (Renal Cancer), LC50: PG=−50) of the same molecule?
A: Its Log10LC50 is −4.43 log10M.

Q: What about the Log10TGI50 ([3]; 786-0 (Renal Cancer), TGI: PG=0) of the same molecule?
A: Its Log10TGI50 is −4.94 log10M.

Q: And the Log10GI50 ([3]; Renal Cancer, 786-0)?
A: The Log10GI50 was −7.81.

Q: What about the Log10GI50 ([4]; Melanoma, UACC-257) of the same molecule?
A: Its Log10GI50 is −5.15.

Q: And the Log10LC50 ([4]; UACC-257 (Melanoma), LC50: PG=−50)?
A: Its Log10LC50 is >−4.30 log10M.

Q: And the Log10TGI50 ([4]; UACC-257 (Melanoma), TGI: PG=0)?
A: Its Log10TGI50 is −4.65 log10M.

Q: And the Log10GI50 ([5]; Breast Cancer, HS 578T)?
A: The Log10GI50 was <−8.30.

Q: What about the Log10LC50 ([5]; HS 578T (Breast Cancer), LC50: PG=−50) of the same molecule?
A: The Log10LC50 was −4.35 log10M.

Q: What about the Log10TGI50 ([5]; HS 578T (Breast Cancer), TGI: PG=0) of the same molecule?
A: Its Log10TGI50 is −5.00 log10M.

Q: What about the Log10GI50 ([6]; Breast Cancer, T-47D) of the same molecule?
A: Its Log10GI50 is <−8.30.

Q: And the Log10LC50 ([6]; T-47D (Breast Cancer), LC50: PG=−50)?
A: Its Log10LC50 is >−4.30 log10M.

Q: And the Log10TGI50 ([6]; T-47D (Breast Cancer), TGI: PG=0)?
A: The Log10TGI50 was −5.36 log10M.

Q: What about the Log10TGI50 ([7]; NCI-H522 (Non-Small Cell Lung Cancer), TGI: PG=0) of the same molecule?
A: The Log10TGI50 was −4.60 log10M.

Q: And the Log10LC50 ([7]; NCI-H-522 (Non-Small Cell Lung Cancer), LC50: PG=−50)?
A: The Log10LC50 was >−4.30 log10M.

Q: And the Log10LC50 ([8]; OVCAR-5 (Ovarian Cancer), LC50: PG=−50)?
A: Its Log10LC50 is −4.66 log10M.

Q: What about the Log10TGI50 ([8]; OVCAR-5 (Ovarian Cancer), TGI: PG=0) of the same molecule?
A: Its Log10TGI50 is −5.14 log10M.

Q: What about the Log10GI50 ([8]; Ovarian Cancer, OVCAR-5) of the same molecule?
A: The Log10GI50 was <−8.30.

Q: And the Log10GI50 ([9]; Renal Cancer, UO-31)?
A: The Log10GI50 was <−8.30.

Q: And the Log10LC50 ([9]; UO-31 (Renal Cancer), LC50: PG=−50)?
A: Its Log10LC50 is >−4.30 log10M.

Q: What about the Log10TGI50 ([9]; UO-31 (Renal Cancer), TGI: PG=0) of the same molecule?
A: The Log10TGI50 was −5.10 log10M.

Q: What about the Log10GI50 ([10]; CNS Cancer, SF-539) of the same molecule?
A: Its Log10GI50 is <−8.30.

Q: What about the Log10LC50 ([10]; SF-539 (CNS Cancer), LC50: PG=−50) of the same molecule?
A: The Log10LC50 was −4.56 log10M.

Q: What about the Log10GI50 ([11]; Renal Cancer, TK-10) of the same molecule?
A: Its Log10GI50 is <−8.30.

Q: What about the Log10LC50 ([11]; TK-10 (Renal Cancer), LC50: PG=−50) of the same molecule?
A: Its Log10LC50 is −4.53 log10M.

Q: And the Log10TGI50 ([11]; TK-10 (Renal Cancer), TGI: PG=0)?
A: Its Log10TGI50 is −5.34 log10M.

Q: And the Log10LC50 ([12]; EKVX (Non-Small Cell Lung Cancer), LC50: PG=−50)?
A: Its Log10LC50 is −4.59 log10M.

Q: What about the Log10TGI50 ([12]; EKVX (Non-Small Cell Lung Cancer), TGI: PG=0) of the same molecule?
A: Its Log10TGI50 is −5.08 log10M.

Q: And the Log10GI50 ([12]; Non-Small Cell Lung Cancer, EKVX)?
A: Its Log10GI50 is −8.19.

Q: What about the Log10LC50 ([13]; IGROVI (Ovarian Cancer), LC50: PG=−50) of the same molecule?
A: Its Log10LC50 is >−4.30 log10M.

Q: And the Log10TGI50 ([13]; IGROVI (Ovarian Cancer), TGI: PG=0)?
A: Its Log10TGI50 is >−4.30 log10M.

Q: And the Log10GI50 ([13]; Ovarian Cancer, IGROVI)?
A: Its Log10GI50 is −5.36.

Q: And the Log10LC50 ([14]; NCI-H322M (Non-Small Cell Lung Cancer), LC50: PG=−50)?
A: The Log10LC50 was −4.59 log10M.

Q: What about the Log10TGI50 ([14]; NCI-H322M (Non-Small Cell Lung Cancer), TGI: PG=0) of the same molecule?
A: Its Log10TGI50 is −5.06 log10M.

Q: What about the Log10GI50 ([14]; Non-Small Cell Lung Cancer, NCI-H322M) of the same molecule?
A: The Log10GI50 was −6.26.

Q: And the Log10GI50 ([15]; Breast Cancer, MDA-MB231/ATCC)?
A: Its Log10GI50 is −7.64.

Q: And the Log10LC50 ([15]; MDA-MB231/ATCC (Breast Cancer), LC50: PG=−50)?
A: The Log10LC50 was −4.77 log10M.

Q: And the Log10TGI50 ([15]; MDA-MB231/ATCC (Breast Cancer), TGI: PG=0)?
A: The Log10TGI50 was −6.32 log10M.
